For data set [1] the following is noted: degassed acetonitrile; cited from earlier work.
The conditions of data set [2]: H2O/DMSO (95:5); cited from earlier work.
The test system of a further data set is SK‐MEL28. As to conditions: visible light, dose 100 J cm‐2, ref m (Inorg. Chem. 2016, 55, 83); cited from earlier work.
A short description of data set [3]: 1O2 quantum yield determination with DPBF. As to conditions: acetonitrile. As to the method:
It was performed for complexes 1–8 in acetonitrile according to a relative procedure adapted from the literature[132]−[134] based on monitoring the oxidation of 1,3-diphenylisobenzofuran (DPBF, yellow) to 1,2-dibenzoylbenzene (colorless) photosensitized by the Ir(III) complexes. DPBF was used as an ^1O2 scavenger due to its fast reaction with this molecule. Fresh stock air-equilibrated solutions of photosensitizers (6.00 × 10^–6 M) and DPBF (1.50 × 10^–4 M) in acetonitrile were prepared. In a quartz cell, 1 mL of DPBF solution, 0.5 mL of complex solution, and 1.5 mL of acetonitrile were mixed to prepare a final solution with 5.00 × 10^–5 M DPBF and 1.00 × 10^–6 M complex. The final solutions were studied by recording UV–vis absorption spectra at room temperature in dark conditions (over a period of 6 min with time intervals of 2 min), under blue light irradiation (λexc = 470 nm, “Medusa” photoreactor) and under green light irradiation (λexc = 530 nm, “Medusa” photoreactor) for 5 s irradiation intervals during a total exposure period of 20 s. Absorption UV–vis spectra were recorded after every irradiation interval.
The consumption of DPBF probe was measured by monitoring its absorbance intensity decrease at 410 nm with irradiation time. ^1O2 generation quantum yield (ϕΔ) was calculated from eq 1 using Rose Bengal or [Ru(bpy)3]^2+ as reference for complexes with pbpz and pbpn ligands, respectively: [drawing 22] 1 where s and ref subscripts correspond to the complex and the reference, ϕΔ is the ^1O2 generation quantum yield (0.53 for Rose Bengal[135] and 0.56 for [Ru(bpy)3]Cl2[132] in degassed acetonitrile), S is the slope of the plots of the −ln(normalized absorbance) of DPBF at 410 nm vs the irradiation time, and F is the correction factor of absorption, which is given by F = 1–10^–O.D. (where O.D. is the optical density at 470 nm of solutions of complexes and references). The reproducibility of the results was confirmed by performing each experiment three times.
The stability of DPBF probe was studied in dark conditions and under light irradiation. In dark conditions and under green light irradiation the probe remains unaltered. However, under blue light irradiation, a photobleaching of DPBF was observed. Probe consumption was approximately 6.5% every 5 s. Therefore, a working interval of 20 s was chosen, where 75% of the probe remains stable. To calculate the ϕΔ, a correction factor was applied to the absorbance at 410 nm: a 6.5% of the previous value was added to each absorbance to counteract self-consumption of the probe (i.e., to the absorbance at 10 s, a 6.5% of the absorbance at 5 s was added).

The next data set relates to CT26. Set-up: method as in p (Pozza et al., Inorg. Chem. 2023). Particulars: 540 nm, dose 9 J cm‐2, ref p (Pozza et al., Inorg. Chem. 2023); cited from earlier work.
In another data set the test system is HT29. On the set-up: method as in p (Pozza et al., Inorg. Chem. 2023). Particulars: 540 nm, dose 9 J cm‐2, ref p (Pozza et al., Inorg. Chem. 2023); cited from earlier work.
A further data set concerns RPE‐1. Set-up: method as in p (Pozza et al., Inorg. Chem. 2023). As to conditions: cited from earlier work.
Another data set concerns A549. Particulars: 425 nm, dose 1.2 J cm‐2, ref e (ACS Appl. Mater. Interfaces, 2017, 9, 42471; main text ref 24); cited from earlier work.
A further data set relates to HeLa. Particulars: 425 nm, dose 1.2 J cm‐2, ref e (ACS Appl. Mater. Interfaces, 2017, 9, 42471; main text ref 24); cited from earlier work.
The next data set deals with A549 cancer cells. Description: MTT cell viability assay, dark or photoactivated. The class given is cell-based, human. As to conditions: 4 h incubation, kept in the dark, viability after 48 h, MTT, read-out: IC50 dark. The method, then:
Cells were cultured in 96-well plates at a density of 3000 (A549), 2500 (HeLa), or 5000 (PC-3, 1BR.3.G, and MRC-5) cells per well in cell culture medium and allowed to attach for 24 h. Solutions of the complexes at different concentrations were prepared for cell treatments. In all cases, the solid compounds were weighed using an analytical balance (Mettler Toledo AX205DR) to ensure precise measurements. Subsequently, 5 mM solutions were prepared using DMSO. Solutions were then diluted in water to reach a concentration of 1 mM and then, aliquots were taken and diluted in culture medium to obtain solutions ranging from 0 to 50 μM. […] The cells were treated with these solutions in dark conditions or following the photoactivation protocol (see below). 48 h later the treatments were removed, and cells were washed with phosphate-buffered saline (PBS).
Initially, the effect of the complexes on the cell viability was determined by the 3-(4,5-dimethylthiazol-2-yl)-2,5-diphenyltetrazolium bromide (MTT) assay.[147] The cells were incubated for 2 h with 100 μL of culture medium together with 10 μL of MTT (Sigma-Aldrich) at 0.5 mg/mL. After discarding the medium, DMSO was added to each well to dissolve the purple formazan crystals. The absorbance of each well was determined on a Multiscan Plate Reader (Synergy 4, Biotek, Winooski) at a wavelength of 570 nm. Cell viability was also assessed using the CyQUANT Direct Cell Proliferation Assay (Thermo Fisher Scientific), following the manufacturer’s instructions. Briefly, after the treatments, the cells were washed with PBS, and an equal volume of culture medium and CyQUANT mix was added to each well. The plates were then incubated for 1 h at 37 °C. Subsequently, the fluorescence intensity was bottom read using a Multiscan Plate Reader (Synergy 4, Biotek, Winooski) with excitation and emission filters of 485 and 528 nm, respectively. In both assays, at least three replicates were measured for each treatment. The concentration that reduces the cell viability by 50% (IC50) was established using the Gen5 software (BioTek). Three independent experiments were carried out for each compound. […] The phototoxicity index (PI = IC50,dark/IC50,light) was determined.
To assess the photodynamic activity of the complexes, cells were incubated with the complexes for 4 h to enable their intracellular accumulation. The cells were then irradiated with light with a wavelength of 460 nm (blue), 530 nm (green), or 655 nm (red) for 1 h using a LED system (LuxLight) with an effective power of 6.7 mW cm^–2, which provides a total light dose of 24.1 J cm^–2. The LED system was positioned at 25 mm from the cell culture plates.
In general terms: Tetrazolium dyes change colour on reduction, which living cells bring about.

Data set [4] is described as follows: pKa determination (absorbance vs pH). The class given is physicochemical. Particulars: H2O/DMSO (98/2, v/v) solution; DMSO/H2O (2/98, v/v), Bu4NBF4 5 mM; piperidine ring; read-out: pKa. The method, then: Solutions of complexes 5 and 6 (2.00 × 10^–5 M) and Imepip ligand (2.00 × 10^–3 M) in H2O/DMSO (98/2, v/v) mixture with n-Bu4NBF4 (5 mM) were prepared. The presence of the salt ensured the conductivity of the media. Evolution of the peaks was studied at different pH by recording the absorbance spectrum. Aliquots of 10 μL of HCl (0.002–0.020 M) or NaOH (0.002–0.020 M) were added to a solution of 2.4 mL of complex to vary the pH. The absorbance versus pH plot enables us to determine one constant according to the equation from the Wilson and Lester method (eq 2):[146] [drawing 23] 2 where Aa is the absorbance for the acid species, Ab is the absorbance for the basic species, and Am is the absorbance of the mixture. The intersection obtained by representing log(Am – Aa)/(Ab – Am) versus pH provides the pKa.

Where [5] appears, read: 540 nm, dose 9 J cm‐2, ref p (Pozza et al., Inorg. Chem. 2023).
Where [6] appears, read: 620 nm, dose 6.7 J cm‐2, ref p (Pozza et al., Inorg. Chem. 2023).

Like-named read-outs stand apart in the source and are kept apart here. Where only a bound is given, the exact number is not on record here.

With `O=C([O-])c1c(Cl)c(Cl)c(Cl)c(Cl)c1-c1c2cc(I)c(=O)c(I)c-2oc2c(I)c([O-])c(I)cc12.[Na+].[Na+]` [Rose Bengal], the “1O2 generation quantum yield (ϕΔ) of reference” value in [1] was 0.53; in data set [2], 0.76.

`[Ru+2].[c-]1cccc2c1c1ncccc1c1nc3cc4ccccc4cc3nc21.c1ccc(-c2ccccn2)nc1.c1ccc(-c2ccccn2)nc1` [[Ru(bpy)2(pbpn)]+]: in the data set on SK‐MEL28, the PI was greater than 1400 and the PI/Dose is given as greater than 140.

For the molecule `[Cl][Ru][Cl].c1ccc(-c2ccccn2)nc1.c1ccc(-c2ccccn2)nc1.c1ccc(-c2ccccn2)nc1` [[Ru(bpy)3]Cl2, reference compound], the “Slope (S) of ‐ln(normalized Abs) vs time, photooxidation of DPBF” value in data set [3] (λir = 470 nm) is reported as 0.0535; in data set [3] (λir = 530 nm) it was 0.0057. The entries for the “1O2 generation quantum yield (ϕΔ) of reference” value in data set [1] and in data set [2] were 0.56 and 0.18, respectively.

On to `[Ru+2].c1ccc2cc3nc4c5cccnc5c5ncccc5c4nc3cc2c1.c1ccc2cc3nc4c5cccnc5c5ncccc5c4nc3cc2c1.c1cnc2c(c1)ccc1cccnc12` [[Ru(dppn)2(phen)]2+], for which the PI in the data set with CT26 was 1666; in the data set on HT29, 556; with RPE‐1 (setting [5]) it was 556; in the data set with RPE‐1 (setting [6]) it was 333. The PI/Dose in the data set on CT26 is recorded as 185.1; in the data set with HT29, 61.8; with RPE‐1 (setting [5]) it was 61.8; with RPE‐1 (setting [6]), 49.7.

Take `F[P-](F)(F)(F)(F)F.[Ir+3].[c-]1ccccc1-c1ccccn1.[c-]1ccccc1-c1ccccn1.c1ccc2cc3[nH]c(-c4ccc5ccccc5n4)nc3cc2c1` [[Ir(N^∧N)(ppy)2]PF6]: the PI/Dose with A549 was 268; in the data set on HeLa, 397.

For orientation: IC50 means the concentration at which inhibition is half-maximal. With `c1cn(CCN2CCCCC2)cn1` [(N-ethylpiperidyl)imidazole, reference compound], the IC50 is 68 ± 2 µM with A549 cancer cells (A549) and greater than 50 µM in the data set on A549 cancer cells (Homo sapiens, A549, A549). Further, the pKa in data set [4] came out at 7.1.

The record behind these values is article PMC10859961, “Ir(III) Half-Sandwich Photosensitizers with a π-Expansive Ligand for Efficient Anticancer Photodynamic Therapy” (Journal of Medicinal Chemistry, 2024).
